Literature values in article PMC4585333, “Novel Regulator of Acylated Ghrelin, CF801, Reduces Weight Gain, Rebound Feeding after a Fast, and Adiposity in Mice” (Frontiers in Endocrinology, 2015).

Legend:
GOAT = conditions: microsomal assay; ref [56]; cited from earlier work
From the text: An approach was undertaken to design a novel GOAT inhibitor, resulting in a compound we named CF801. The first five amino acids of CF801 derive from studies carried out in 2008 by Yang et al., who examined the inhibitory effect of certain pentapeptides (e.g., GSAFL-NH2) on GOAT using a microsomal assay ([56]). […] In synthesizing CF801, we extended and modified the original GSAFL-NH2 ...

[1] = effects appear similar to those of CF801; ref [74], [75]; cited from earlier work
Procedure: Given the high amino acid similarity between CF801 and desacyl ghrelin, it is possible that CF801 acts like an analog of desacyl ghrelin. […] Alternatively, CF801 may reduce acylated ghrelin simply by reducing GOAT mRNA, and thus acyl ghrelin levels, without altering GOAT activity at least in the way that this is tested in vitro. While the mechanisms underlying these ef ...

[2] = cited from earlier work
From the text: One potential target for the control of body weight and appetite is the gut–brain peptide ghrelin. Ghrelin, a 28-amino-acid peptide produced in the X/A-like cells of the gastric oxyntic mucosa lining the stomach, is a key regulator of both short- and long-term energy homeostasis ([1]–[3]). Circulating ghrelin levels rise in anticipation of a meal and subside once the organism is satiated ([4]–[7]).

GSAFL-NH2
inhibitory activity on GOAT (GOAT): showed inhibitory activity on GOAT

desacyl ghrelin
weight gain, ghrelin secretion and adipose tissue accumulation [1]: decrease in weight gain, ghrelin secretion, and adipose tissue accumulation

ghrelin
feeding after injection ([2]; injections of ghrelin, ref [35]–[37]): vigorous feeding bouts | respiratory exchange ratio (RER) ([2]; mice receiving daily injections of ghrelin, ref [3]): increases in RER
